Numbered stars: 1 amine (or outer) side, 2 acyl side, 3 side chain; on linkers, the order of the positions; unused ones are H or OH. Bridge positions count the residues as written; N and C are the ends. Square brackets hold non-standard residues; d marks the D form. Peptide text beside a SMILES is read from it. * marks the point of attachment. C20 diacid = O=C(O)CCCCCCCCCCCCCCCCCCC(=O)*; γGlu = O=C(O)[C@H](CCC(=O)[*:2])N[*:1]; Hyp = O=C(O)[C@@H]1C[C@@H](O)CN1

The target in this assay is T1, hAMY3 receptor (Homo sapiens, UniProt O60896+P30988).
T1 sequence (P30988 25-474): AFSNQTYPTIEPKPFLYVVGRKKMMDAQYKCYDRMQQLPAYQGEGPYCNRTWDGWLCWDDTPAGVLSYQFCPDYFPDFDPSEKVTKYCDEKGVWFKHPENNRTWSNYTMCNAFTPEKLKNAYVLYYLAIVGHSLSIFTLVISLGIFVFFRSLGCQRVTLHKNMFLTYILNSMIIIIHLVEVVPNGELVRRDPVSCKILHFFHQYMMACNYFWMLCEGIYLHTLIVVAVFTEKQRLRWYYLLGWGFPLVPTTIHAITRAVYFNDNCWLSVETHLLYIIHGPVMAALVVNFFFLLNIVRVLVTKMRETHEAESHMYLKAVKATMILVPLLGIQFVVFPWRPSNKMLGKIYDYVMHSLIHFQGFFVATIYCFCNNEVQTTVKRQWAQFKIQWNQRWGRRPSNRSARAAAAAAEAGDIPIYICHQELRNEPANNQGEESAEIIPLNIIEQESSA
T1 sequence (O60896 24-148 partner): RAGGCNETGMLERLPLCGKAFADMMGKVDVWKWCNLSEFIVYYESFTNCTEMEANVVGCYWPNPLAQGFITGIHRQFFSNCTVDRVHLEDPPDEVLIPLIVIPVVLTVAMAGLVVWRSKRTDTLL
Kind of assay: cAMP assay for in vitro receptor activation, hAMY3-R. As to conditions: cAMP assay, hAMY3 receptor; read-out: hAMY3R EC50. It is filed as cell-based. The gist of the method:
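Accumulated cAMP was detected by time-resolved FRET one hour after reagent addition. Beforehand, hAMY3-R-overexpressing monoclonal cells (2000/well, DPBS, 0.05% casein, 0.5 mM IBMX) received graded doses of compound for 30 min at room temperature; human amylin served as positive control.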
As to `CC[C@H](C)[C@H](NC(=O)[C@H](CCC(N)=O)NC(=O)[C@H](Cc1c[nH]cn1)NC(=O)[C@H](C)NC(=O)[C@H](CC(C)C)NC(=O)[C@H](CCCNC(=N)N)NC(=O)[C@H](CCC(N)=O)NC(=O)[C@@H](NC(=O)[C@@H](NC(=O)[C@@H]1CSSC[C@H](NC(=O)CN)C(=O)N[C@@H](CCCNC(=N)N)C(=O)N[C@@H](Cc2ccccc2)C(=O)NCC(=O)N[C@@H]([C@@H](C)O)C(=O)N1)[C@@H](C)O)C(C)C)C(=O)N[C@@H](Cc1ccc(O)cc1)C(=O)N[C@@H](CCC(N)=O)C(=O)N[C@@H](Cc1ccccc1)C(=O)N[C@H](C(=O)N[C@@H](CC(=O)O)C(=O)N[C@@H](CCCCN)C(=O)N[C@@H](CC(=O)O)C(=O)N[C@@H](CCCCN)C(=O)N[C@@H](CC(=O)O)C(=O)N[C@@H](CC(N)=O)C(=O)N[C@H](C(=O)N[C@@H](C)C(=O)N1CCC[C@H]1C(=O)N[C@@H](CCCNC(=N)N)C(=O)N[C@H](C(=O)N[C@@H](CCCCN)C(=O)N[C@H](C(=O)NCC(=O)N1CCC[C@H]1C(=O)N[C@@H](CCC(N)=O)C(=O)NCC(=O)N[C@@H](Cc1ccc(O)cc1)C(N)=O)C(C)C)[C@@H](C)O)C(C)C)[C@@H](C)O` [compound 368] (H-GCRFGTCTVQRLAHQIYQFTDKDKDNVAPRTKVGPQGY-NH2; disulfide 2-7; N-terminus assumed), the EC50 amounted to 0.015 nM. Take `CC[C@H](C)[C@H](NC(=O)[C@H](CCC(N)=O)NC(=O)[C@H](Cc1c[nH]cn1)NC(=O)[C@H](C)NC(=O)[C@H](CC(C)C)NC(=O)[C@H](CCCNC(=N)N)NC(=O)[C@H](CCC(N)=O)NC(=O)[C@@H](NC(=O)[C@@H](NC(=O)[C@@H]1CSSC[C@H](NC(=O)[C@H](CCCCN)NC(=O)CC[C@H](NC(=O)CCCCCCCCCCCCCCCCCCC(=O)O)C(=O)O)C(=O)N[C@@H](CC(N)=O)C(=O)N[C@@H]([C@@H](C)O)C(=O)N[C@@H](C)C(=O)N[C@@H]([C@@H](C)O)C(=O)N1)[C@@H](C)O)C(C)C)C(=O)N[C@@H](Cc1ccc(O)cc1)C(=O)N[C@@H](CCC(N)=O)C(=O)N[C@@H](Cc1ccc(O)cc1)C(=O)N[C@H](C(=O)N[C@@H](CC(=O)O)C(=O)N[C@@H](CCCCN)C(=O)N[C@@H](CC(=O)O)C(=O)N[C@@H](CCCCN)C(=O)N[C@@H](CC(=O)O)C(=O)N[C@@H](CC(N)=O)C(=O)N[C@H](C(=O)N[C@@H](C)C(=O)N1CCC[C@H]1C(=O)N1CCC[C@H]1C(=O)N[C@H](C(=O)N[C@@H](CC(N)=O)C(=O)N[C@H](C(=O)NCC(=O)N[C@@H](CO)C(=O)N[C@@H](CC(N)=O)C(=O)NCC(=O)N1C[C@H](O)C[C@H]1C(N)=O)C(C)C)[C@@H](C)O)C(C)C)[C@@H](C)O` [compound 48] ({C20 diacid-γGlu}-KCNTATCTVQRLAHQIYQYTDKDKDNVAPPTNVGSNG[Hyp]-NH2; disulfide 2-7): the EC50 is 0.011 nM. In the case of `CC(C)C[C@H](NC(=O)[C@H](CCCNC(=N)N)NC(=O)[C@H](CCC(N)=O)NC(=O)[C@@H](NC(=O)[C@@H](NC(=O)[C@@H]1CSSC[C@H](NC(=O)CN)C(=O)N[C@@H](CCCNC(=N)N)C(=O)N[C@@H](Cc2ccccc2)C(=O)NCC(=O)N[C@@H]([C@@H](C)O)C(=O)N1)[C@@H](C)O)C(C)C)C(=O)N[C@@H](C)C(=O)N[C@@H](Cc1c[nH]cn1)C(=O)N[C@@H](Cc1ccccc1)C(=O)N[C@@H](CC(C)C)C(=O)N[C@@H](Cc1ccc(O)cc1)C(=O)N[C@@H](CCC(N)=O)C(=O)N[C@@H](Cc1ccccc1)C(=O)N[C@H](C(=O)N[C@@H](CC(=O)O)C(=O)N[C@@H](CCCCN)C(=O)N[C@@H](CC(=O)O)C(=O)N[C@@H](CCCCN)C(=O)N[C@@H](CC(=O)O)C(=O)N[C@@H](CC(N)=O)C(=O)N[C@H](C(=O)N[C@@H](C)C(=O)N1CCC[C@H]1C(=O)N[C@@H](CCCNC(=N)N)C(=O)N[C@H](C(=O)N[C@@H](CCCCN)C(=O)N[C@H](C(=O)NCC(=O)N[C@@H](CO)C(=O)N[C@@H](CC(N)=O)C(=O)NCC(=O)N[C@@H](Cc1ccc(O)cc1)C(N)=O)C(C)C)[C@@H](C)O)C(C)C)[C@@H](C)O` [compound 117] (H-GCRFGTCTVQRLAHFLYQFTDKDKDNVAPRTKVGSNGY-NH2; disulfide 2-7; N-terminus assumed), the EC50 came to 0.024 nM. As to `CC(C)C[C@H](NC(=O)[C@H](CCCNC(=N)N)NC(=O)[C@H](CCC(N)=O)NC(=O)[C@@H](NC(=O)[C@@H](NC(=O)[C@@H]1CSSC[C@H](NC(=O)CN)C(=O)N[C@@H](CCCNC(=N)N)C(=O)N[C@@H](Cc2ccccc2)C(=O)NCC(=O)N[C@@H]([C@@H](C)O)C(=O)N1)[C@@H](C)O)C(C)C)C(=O)N[C@@H](C)C(=O)N[C@@H](CC(N)=O)C(=O)N[C@@H](Cc1ccccc1)C(=O)N[C@@H](CC(C)C)C(=O)N[C@@H](Cc1ccc(O)cc1)C(=O)N[C@@H](CCC(N)=O)C(=O)N[C@@H](Cc1ccccc1)C(=O)N[C@H](C(=O)N[C@@H](CC(=O)O)C(=O)N[C@@H](CCCCN)C(=O)N[C@@H](CC(=O)O)C(=O)N[C@@H](CCCCN)C(=O)N[C@@H](CC(=O)O)C(=O)N[C@@H](CC(N)=O)C(=O)N[C@H](C(=O)N[C@@H](C)C(=O)N1CCC[C@H]1C(=O)N[C@@H](CCCNC(=N)N)C(=O)N[C@H](C(=O)N[C@@H](CC(N)=O)C(=O)N[C@H](C(=O)NCC(=O)N1CCC[C@H]1C(=O)N[C@@H](CCC(N)=O)C(=O)NCC(=O)N[C@@H](Cc1ccc(O)cc1)C(N)=O)C(C)C)[C@@H](C)O)C(C)C)[C@@H](C)O` [compound 16] (H-GCRFGTCTVQRLANFLYQFTDKDKDNVAPRTNVGPQGY-NH2; disulfide 2-7), the EC50 was found to be 0.008 nM.

`CC[C@H](C)[C@H](NC(=O)[C@H](CCCCN)NC(=O)[C@@H](NC(=O)[C@H](CCCNC(=N)N)NC(=O)[C@@H]1CCCN1C(=O)[C@H](C)NC(=O)[C@@H](NC(=O)[C@H](CC(N)=O)NC(=O)[C@H](CC(=O)O)NC(=O)[C@H](CCCCN)NC(=O)[C@H](CC(=O)O)NC(=O)[C@H](CCCCN)NC(=O)[C@H](CC(=O)O)NC(=O)[C@@H](NC(=O)[C@H](Cc1ccccc1)NC(=O)[C@H](CCC(N)=O)NC(=O)[C@H](Cc1ccc(O)cc1)NC(=O)[C@@H](NC(=O)[C@H](CCC(N)=O)NC(=O)[C@H](Cc1c[nH]cn1)NC(=O)[C@H](C)NC(=O)[C@H](CC(C)C)NC(=O)[C@H](CCCNC(=N)N)NC(=O)[C@H](CCC(N)=O)NC(=O)[C@@H](NC(=O)[C@@H](NC(=O)[C@@H]1CSSC[C@H](NC(=O)CN)C(=O)N[C@@H](CCCNC(=N)N)C(=O)N[C@@H](Cc2ccccc2)C(=O)NCC(=O)N[C@@H]([C@@H](C)O)C(=O)N1)[C@@H](C)O)C(C)C)[C@@H](C)CC)[C@@H](C)O)C(C)C)[C@@H](C)O)C(=O)NCC(=O)N1CCC[C@H]1C(=O)N[C@@H](CC(N)=O)C(=O)NCC(=O)N[C@@H](Cc1ccc(O)cc1)C(N)=O` [compound 367] (H-GCRFGTCTVQRLAHQIYQFTDKDKDNVAPRTKIGPNGY-NH2; disulfide 2-7; N-terminus assumed): the EC50 amounted to 0.014 nM.

These data come from US12139520B2 (priority 2020, dated 2024).
